Measured values reported in patent US12173322B2, “Genome-edited induced pluripotent stem cells, and cells derived therefrom, and uses thereof” (priority 2020, dated 2024).
Like-named read-outs stand apart in the source and are kept apart here.

Experiments:
Assay type in all cases: cell-based
[1] = target: T1, hNav1.5 (Homo sapiens, UniProt Q14524); experiment: Patch clamp electrophysiology (QPatch CiPA), hNav1.5
T1 construct: Eurofins

[2] = target: T2, hKCNQ1 /mink (Homo sapiens, UniProt P51787); experiment: Patch clamp electrophysiology (QPatch), hKCNQ1/mink
T2 construct: Eurofins

[3] = target: T3, hCav1.2 (Homo sapiens, UniProt Q13936); experiment: Patch clamp electrophysiology (QPatch CiPA), hCav1.2
T3 construct: Eurofins

[4] = target: T4, hKv4.3/hKChIP2 (Homo sapiens, UniProt Q9UK17); experiment: Patch clamp electrophysiology (QPatch CiPA), hKv4.3/hKChIP2; conditions: for IC50: Antagonist, read-out: Estimated IC50
T4 construct: Eurofins
T4 sequence (Q9UK17 1-655): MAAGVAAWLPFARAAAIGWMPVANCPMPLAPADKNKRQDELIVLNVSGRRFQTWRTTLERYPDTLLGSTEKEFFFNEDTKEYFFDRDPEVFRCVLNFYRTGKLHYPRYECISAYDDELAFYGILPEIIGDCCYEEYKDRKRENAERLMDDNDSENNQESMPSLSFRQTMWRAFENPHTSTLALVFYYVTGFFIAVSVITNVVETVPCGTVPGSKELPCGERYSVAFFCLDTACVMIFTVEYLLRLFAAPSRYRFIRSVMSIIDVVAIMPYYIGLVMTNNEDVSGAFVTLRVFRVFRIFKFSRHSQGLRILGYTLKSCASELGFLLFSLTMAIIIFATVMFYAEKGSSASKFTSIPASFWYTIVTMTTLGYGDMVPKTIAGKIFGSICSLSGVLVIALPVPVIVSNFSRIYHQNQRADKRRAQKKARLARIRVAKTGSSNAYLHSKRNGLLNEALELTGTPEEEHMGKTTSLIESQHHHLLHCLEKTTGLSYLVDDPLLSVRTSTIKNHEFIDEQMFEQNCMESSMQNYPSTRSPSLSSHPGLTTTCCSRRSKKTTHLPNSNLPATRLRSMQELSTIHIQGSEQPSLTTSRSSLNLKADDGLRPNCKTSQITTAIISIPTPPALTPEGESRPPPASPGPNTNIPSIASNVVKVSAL
T4 sequence (Q9NS61 1-270 partner): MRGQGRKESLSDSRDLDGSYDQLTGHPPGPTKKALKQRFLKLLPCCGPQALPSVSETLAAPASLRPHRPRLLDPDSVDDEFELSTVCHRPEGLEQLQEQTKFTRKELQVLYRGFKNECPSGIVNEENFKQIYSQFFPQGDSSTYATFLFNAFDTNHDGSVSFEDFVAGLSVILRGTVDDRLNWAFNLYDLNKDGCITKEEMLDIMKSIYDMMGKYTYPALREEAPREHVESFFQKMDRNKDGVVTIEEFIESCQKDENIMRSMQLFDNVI

[5] = target: T5, hKir2.1 (Homo sapiens, UniProt P63252); experiment: Patch clamp electrophysiology (QPatch CiPA), hKir2.1; conditions: for IC50: Antagonist, read-out: Estimated IC50
T5 construct: Eurofins
T5 sequence (P63252 1-427): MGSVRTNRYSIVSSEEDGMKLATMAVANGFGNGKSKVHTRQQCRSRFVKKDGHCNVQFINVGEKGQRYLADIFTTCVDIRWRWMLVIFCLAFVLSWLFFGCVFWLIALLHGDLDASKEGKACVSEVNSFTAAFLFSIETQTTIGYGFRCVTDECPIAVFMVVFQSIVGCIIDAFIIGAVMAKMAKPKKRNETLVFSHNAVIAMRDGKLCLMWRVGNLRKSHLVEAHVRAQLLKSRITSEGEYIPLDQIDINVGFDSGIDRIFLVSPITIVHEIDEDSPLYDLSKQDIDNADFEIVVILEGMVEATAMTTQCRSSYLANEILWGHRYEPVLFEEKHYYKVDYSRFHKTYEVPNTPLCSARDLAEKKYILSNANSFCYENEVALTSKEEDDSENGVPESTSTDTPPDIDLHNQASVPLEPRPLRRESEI
Procedure: Replated hiPSC-CMs were loaded with a fluorescent calcium dye and calcium transients were recorded before and after peptide addition.

[6] = End, read-out: % inhibition mean
[7] = Peak, read-out: % inhibition mean
[8] = Peak, read-out: % inhibition n1
[9] = Peak, read-out: % inhibition n2

T2 sequence (P51787 whole entry): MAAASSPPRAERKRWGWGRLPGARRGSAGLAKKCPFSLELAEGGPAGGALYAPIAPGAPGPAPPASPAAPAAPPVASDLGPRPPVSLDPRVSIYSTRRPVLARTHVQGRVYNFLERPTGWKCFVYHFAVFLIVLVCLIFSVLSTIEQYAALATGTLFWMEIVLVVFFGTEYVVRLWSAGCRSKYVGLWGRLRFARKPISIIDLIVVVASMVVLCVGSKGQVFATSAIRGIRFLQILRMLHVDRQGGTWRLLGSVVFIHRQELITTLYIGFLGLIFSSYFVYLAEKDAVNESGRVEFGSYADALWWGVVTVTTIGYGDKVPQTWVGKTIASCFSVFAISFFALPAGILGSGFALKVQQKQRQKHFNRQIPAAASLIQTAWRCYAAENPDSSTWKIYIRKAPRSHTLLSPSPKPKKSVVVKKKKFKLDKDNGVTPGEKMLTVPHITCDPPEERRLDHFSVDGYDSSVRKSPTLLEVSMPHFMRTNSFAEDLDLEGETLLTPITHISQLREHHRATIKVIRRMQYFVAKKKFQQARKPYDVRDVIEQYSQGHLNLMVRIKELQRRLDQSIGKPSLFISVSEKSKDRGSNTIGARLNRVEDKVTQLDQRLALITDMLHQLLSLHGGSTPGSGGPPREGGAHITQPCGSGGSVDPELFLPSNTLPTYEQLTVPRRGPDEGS
T3 sequence (Q13936 whole entry): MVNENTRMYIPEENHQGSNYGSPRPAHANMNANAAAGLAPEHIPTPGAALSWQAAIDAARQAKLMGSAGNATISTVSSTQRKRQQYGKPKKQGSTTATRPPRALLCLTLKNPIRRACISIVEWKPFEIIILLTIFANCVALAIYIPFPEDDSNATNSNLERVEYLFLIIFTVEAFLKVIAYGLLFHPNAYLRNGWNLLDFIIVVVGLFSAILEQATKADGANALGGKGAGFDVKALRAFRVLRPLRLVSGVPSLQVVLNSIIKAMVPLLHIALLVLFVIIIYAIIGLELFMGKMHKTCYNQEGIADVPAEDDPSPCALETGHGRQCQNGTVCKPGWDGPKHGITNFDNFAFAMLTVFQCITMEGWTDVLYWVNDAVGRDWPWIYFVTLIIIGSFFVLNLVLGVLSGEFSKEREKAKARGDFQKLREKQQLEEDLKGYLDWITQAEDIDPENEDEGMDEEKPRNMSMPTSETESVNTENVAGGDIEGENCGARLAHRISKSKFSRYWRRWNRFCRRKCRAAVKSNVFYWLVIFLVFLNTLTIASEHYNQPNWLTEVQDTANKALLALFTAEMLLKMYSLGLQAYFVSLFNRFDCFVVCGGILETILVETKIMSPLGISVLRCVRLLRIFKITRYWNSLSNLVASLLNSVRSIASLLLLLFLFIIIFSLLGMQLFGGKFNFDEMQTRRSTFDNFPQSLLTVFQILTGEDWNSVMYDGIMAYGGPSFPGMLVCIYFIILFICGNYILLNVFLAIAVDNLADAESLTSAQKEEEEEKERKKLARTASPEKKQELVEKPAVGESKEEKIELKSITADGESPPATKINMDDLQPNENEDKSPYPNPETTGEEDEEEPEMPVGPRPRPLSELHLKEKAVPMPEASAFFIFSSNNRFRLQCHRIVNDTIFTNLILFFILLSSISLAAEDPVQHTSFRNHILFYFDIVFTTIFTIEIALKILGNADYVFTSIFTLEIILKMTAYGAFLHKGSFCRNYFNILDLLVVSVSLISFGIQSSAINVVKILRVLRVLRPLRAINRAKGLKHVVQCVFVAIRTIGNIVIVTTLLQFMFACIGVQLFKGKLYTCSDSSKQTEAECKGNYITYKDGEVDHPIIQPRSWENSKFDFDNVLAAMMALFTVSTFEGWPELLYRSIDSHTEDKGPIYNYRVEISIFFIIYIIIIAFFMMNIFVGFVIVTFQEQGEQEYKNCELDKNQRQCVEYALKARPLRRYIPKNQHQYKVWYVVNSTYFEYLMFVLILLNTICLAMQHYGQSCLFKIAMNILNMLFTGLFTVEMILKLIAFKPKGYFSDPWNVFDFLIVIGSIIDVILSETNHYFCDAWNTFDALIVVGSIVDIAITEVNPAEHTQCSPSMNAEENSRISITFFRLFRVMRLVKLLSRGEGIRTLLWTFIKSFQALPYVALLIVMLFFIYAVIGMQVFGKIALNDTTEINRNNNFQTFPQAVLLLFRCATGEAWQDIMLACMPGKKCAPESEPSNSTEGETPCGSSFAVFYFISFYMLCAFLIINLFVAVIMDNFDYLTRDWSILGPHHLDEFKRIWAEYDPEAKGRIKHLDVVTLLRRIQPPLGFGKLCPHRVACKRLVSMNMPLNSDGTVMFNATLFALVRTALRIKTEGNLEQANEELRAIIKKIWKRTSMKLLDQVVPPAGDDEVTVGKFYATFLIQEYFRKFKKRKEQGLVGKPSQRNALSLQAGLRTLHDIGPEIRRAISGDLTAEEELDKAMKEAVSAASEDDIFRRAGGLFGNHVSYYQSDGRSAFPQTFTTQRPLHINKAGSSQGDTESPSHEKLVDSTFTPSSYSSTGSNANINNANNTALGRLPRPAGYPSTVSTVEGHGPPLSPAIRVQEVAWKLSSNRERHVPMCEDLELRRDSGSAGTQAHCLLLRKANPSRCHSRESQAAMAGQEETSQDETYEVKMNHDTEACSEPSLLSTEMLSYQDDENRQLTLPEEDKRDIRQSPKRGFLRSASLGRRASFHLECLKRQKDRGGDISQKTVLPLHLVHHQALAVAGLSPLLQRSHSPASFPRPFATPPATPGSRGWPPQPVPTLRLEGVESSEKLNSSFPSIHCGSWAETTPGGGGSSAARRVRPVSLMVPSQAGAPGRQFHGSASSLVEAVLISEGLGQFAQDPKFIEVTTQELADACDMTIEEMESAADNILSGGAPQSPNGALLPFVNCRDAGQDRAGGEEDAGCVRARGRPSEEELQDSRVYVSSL
T3 sequence (Q08289 whole entry partner): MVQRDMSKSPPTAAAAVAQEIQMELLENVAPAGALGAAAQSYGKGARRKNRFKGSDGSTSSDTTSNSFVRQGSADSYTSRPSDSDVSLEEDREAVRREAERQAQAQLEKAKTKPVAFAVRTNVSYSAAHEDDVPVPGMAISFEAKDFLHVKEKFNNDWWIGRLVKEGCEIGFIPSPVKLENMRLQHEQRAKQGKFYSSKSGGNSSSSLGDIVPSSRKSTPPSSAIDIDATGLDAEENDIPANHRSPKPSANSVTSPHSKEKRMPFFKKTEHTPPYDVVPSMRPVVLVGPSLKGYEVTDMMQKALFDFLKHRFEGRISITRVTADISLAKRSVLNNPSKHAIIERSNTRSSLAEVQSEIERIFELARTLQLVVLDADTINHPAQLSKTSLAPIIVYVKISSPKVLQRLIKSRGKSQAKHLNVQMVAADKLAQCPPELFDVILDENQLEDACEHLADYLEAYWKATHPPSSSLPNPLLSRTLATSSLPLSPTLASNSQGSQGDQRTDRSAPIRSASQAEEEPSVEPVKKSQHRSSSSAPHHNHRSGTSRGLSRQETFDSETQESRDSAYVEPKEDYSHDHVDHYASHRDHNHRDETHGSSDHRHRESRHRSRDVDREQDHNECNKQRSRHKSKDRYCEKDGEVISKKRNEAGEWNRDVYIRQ
T3 sequence (P54289 25-956 partner limits assumed): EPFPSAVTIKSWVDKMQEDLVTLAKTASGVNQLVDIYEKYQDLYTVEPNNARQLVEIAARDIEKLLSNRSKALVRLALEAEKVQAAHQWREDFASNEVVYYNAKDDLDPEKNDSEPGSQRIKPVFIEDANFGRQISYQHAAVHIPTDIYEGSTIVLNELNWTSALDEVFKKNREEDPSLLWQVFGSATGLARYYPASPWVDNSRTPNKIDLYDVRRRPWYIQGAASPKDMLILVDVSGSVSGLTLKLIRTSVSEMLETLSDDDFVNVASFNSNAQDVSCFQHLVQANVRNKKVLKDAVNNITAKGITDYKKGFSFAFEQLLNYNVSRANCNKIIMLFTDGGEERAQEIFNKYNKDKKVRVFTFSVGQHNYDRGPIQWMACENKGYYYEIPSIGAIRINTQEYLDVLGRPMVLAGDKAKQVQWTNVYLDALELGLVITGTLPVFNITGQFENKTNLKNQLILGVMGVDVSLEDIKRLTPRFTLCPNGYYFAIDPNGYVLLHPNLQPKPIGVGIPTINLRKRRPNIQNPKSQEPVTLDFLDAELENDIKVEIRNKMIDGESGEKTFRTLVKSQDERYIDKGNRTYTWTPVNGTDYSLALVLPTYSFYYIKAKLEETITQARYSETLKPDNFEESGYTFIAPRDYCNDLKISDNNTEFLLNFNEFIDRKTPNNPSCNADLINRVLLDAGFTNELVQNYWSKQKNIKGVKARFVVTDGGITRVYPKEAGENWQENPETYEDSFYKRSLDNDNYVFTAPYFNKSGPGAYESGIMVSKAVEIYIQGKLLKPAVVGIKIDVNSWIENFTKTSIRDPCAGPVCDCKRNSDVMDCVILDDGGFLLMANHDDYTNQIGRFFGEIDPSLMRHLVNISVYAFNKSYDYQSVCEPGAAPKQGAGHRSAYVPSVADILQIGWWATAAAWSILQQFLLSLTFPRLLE
T3 sequence (P54289 957-1103 partner limits assumed): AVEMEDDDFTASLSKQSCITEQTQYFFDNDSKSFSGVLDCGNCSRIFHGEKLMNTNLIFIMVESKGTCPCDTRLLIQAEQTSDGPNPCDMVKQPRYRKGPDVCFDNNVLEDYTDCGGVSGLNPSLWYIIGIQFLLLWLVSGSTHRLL

## CCCCNc1ccc(C(=O)OCCN(C)C)cc1 [Tetracaine]
[1]; read-out: % inhibition mean
  inhibition at 0.03 µM: 6.44%
  inhibition at 0.3 µM: 27.2%
  inhibition at 3 µM: 71.3%
  inhibition at 30 µM: 91.3%
  inhibition at 300 µM: 95.9%
[1]; read-out: % inhibition n1
  inhibition at 0.03 µM: 6.26%
  inhibition at 0.3 µM: 28.8%
  inhibition at 3 µM: 74.2%
  inhibition at 30 µM: 93.8%
  inhibition at 300 µM: 96.6%
[1]; read-out: % inhibition n2
  inhibition at 0.03 µM: 6.62%
  inhibition at 0.3 µM: 25.6%
  inhibition at 3 µM: 68.5%
  inhibition at 30 µM: 88.8%
  inhibition at 300 µM: 95.2%

## CCS(=O)(=O)N(C)[C@H]1c2cc(C#N)ccc2OC(C)(C)[C@@H]1O (racemic) [Chromanol 293B]
[2]; 0.3 μM
  % inhibition mean: 4.24%
  % inhibition n1: 1.35%
  % inhibition n2: 7.13%
[2]; 1 µM
  % inhibition mean: 12.25%
  % inhibition n1: 9.45%
  % inhibition n2: 15.04%
[2]; 3 μM
  % inhibition mean: 22.85%
  % inhibition n1: 21.34%
  % inhibition n2: 24.36%
[2]; 10 µM
  % inhibition mean: 40.28%
  % inhibition n1: 39.37%
  % inhibition n2: 41.20%
[2]; 30 μM
  % inhibition mean: 73.92%
  % inhibition n1: 74.46%
  % inhibition n2: 73.39%
[2]; 100 µM
  % inhibition mean: 95.80%
  % inhibition n1: 96.45%
  % inhibition n2: 95.16%
[2]; read-out: Estimated IC50
  IC50: 11.5 µM

## COC(=O)C1=C(C)NC(C)=C(C(=O)OC)C1c1ccccc1[N+](=O)[O-] [Nifedipine]
[3]; read-out: % inhibition mean
  inhibition at 0.001 µM: 15.1%
  inhibition at 0.01 µM: 34.8%
  inhibition at 0.1 µM: 55.7%
  inhibition at 1 µM: 61%
  inhibition at 10 µM: 83.8%
  inhibition at 100 µM: 94.8%
[3]; read-out: % inhibition n1
  inhibition at 0.001 µM: 21.6%
  inhibition at 0.01 µM: 38.2%
  inhibition at 0.1 µM: 53.1%
  inhibition at 1 µM: 56.8%
  inhibition at 10 µM: 81.4%
  inhibition at 100 µM: 95.2%
[3]; read-out: % inhibition n2
  inhibition at 0.001 µM: 8.54%
  inhibition at 0.01 µM: 31.5%
  inhibition at 0.1 µM: 58.2%
  inhibition at 1 µM: 65.2%
  inhibition at 10 µM: 86.1%
  inhibition at 100 µM: 94.5%

## O=C(NCC1CCCCN1)c1cc(OCC(F)(F)F)ccc1OCC(F)(F)F (centres unmarked) [Flecainide]
[4]; End
  IC50: 10 µM
[4]; Peak
  IC50: 22.5 µM
[4]; [6]
  inhibition at 0.03 µM: 6.93%
  inhibition at 0.3 µM: 7.17%
  inhibition at 3 µM: 26.8%
  inhibition at 30 µM: 71.8%
  inhibition at 300 µM: 90.5%
[4]; End, read-out: % inhibition n1
  inhibition at 0.03 µM: 5.29%
  inhibition at 0.3 µM: 2.84%
  inhibition at 3 µM: 25.6%
  inhibition at 30 µM: 69.2%
  inhibition at 300 µM: 90%
[4]; End, read-out: % inhibition n2
  inhibition at 0.03 µM: 8.57%
  inhibition at 0.3 µM: 11.5%
  inhibition at 3 µM: 27.9%
  inhibition at 30 µM: 74.4%
  inhibition at 300 µM: 91%
[4]; [7]
  inhibition at 0.03 µM: 9.2%
  inhibition at 0.3 µM: 8.4%
  inhibition at 3 µM: 12.6%
  inhibition at 30 µM: 55.2%
  inhibition at 300 µM: 97.4%
[4]; [8]
  inhibition at 0.03 µM: 7.41%
  inhibition at 0.3 µM: 4.05%
  inhibition at 3 µM: 10.6%
  inhibition at 30 µM: 57.5%
  inhibition at 300 µM: 97.4%
[4]; [9]
  inhibition at 0.03 µM: 11%
  inhibition at 0.3 µM: 12.8%
  inhibition at 3 µM: 14.5%
  inhibition at 30 µM: 53%
  inhibition at 300 µM: 97.3%

## [Ba+2].[Cl-].[Cl-] [Barium, Barium Chloride]
[5]; End
  IC50: 3.6 µM
[5]; Peak
  IC50: 62.3 µM
[5]; End, 0.3 μM
  % inhibition mean: 7.01%
  % inhibition n1: 6.49%
  % inhibition n2: 7.53%
[5]; End, 1 μM
  % inhibition mean: 18.29%
  % inhibition n1: 19.93%
  % inhibition n2: 16.65%
[5]; End, 3 μM
  % inhibition mean: 41.38%
  % inhibition n1: 39.87%
  % inhibition n2: 42.88%
[5]; End, 10 μM
  % inhibition mean: 80.72%
  % inhibition n1: 79.79%
  % inhibition n2: 81.66%
[5]; End, 30 μM
  % inhibition mean: 93.28%
  % inhibition n1: 93.64%
  % inhibition n2: 92.93%
[5]; End, 100 μM
  % inhibition mean: 98.46%
  % inhibition n1: 98.46%
  % inhibition n2: 98.47%
[5]; Peak, 0.3 μM
  % inhibition mean: 2.37%
  % inhibition n1: 1.78%
  % inhibition n2: 2.96%
[5]; Peak, 1 μM
  % inhibition mean: 6.45%
  % inhibition n1: 7.99%
  % inhibition n2: 4.90%
[5]; Peak, 3 μM
  % inhibition mean: 12.57%
  % inhibition n1: 14.88%
  % inhibition n2: 10.25%
[5]; Peak, 10 μM
  % inhibition mean: 13.31%
  % inhibition n1: 16.68%
  % inhibition n2: 9.94%
[5]; Peak, 30 μM
  % inhibition mean: 31.99%
  % inhibition n1: 38.78%
  % inhibition n2: 25.19%
[5]; Peak, 100 μM
  % inhibition mean: 62.64%
  % inhibition n1: 63.60%
  % inhibition n2: 61.68%
